Measurements as given in publication PMC6631481, “De Novo Design and In Vitro Testing of Antimicrobial Peptides against Gram-Negative Bacteria” (Pharmaceuticals, 2019).
In brackets after ≈: the same amount, converted by molar mass. Like-named read-outs stand apart in the source and are kept apart here. Non-standard residues stand in square brackets, D forms with d. Residues, ends and D or L forms follow the SMILES beside them. No end group written: not given here.

Columns and labels:
Format in all cases: cell-based
E. coli JW55034 (11430) = experiment: microbe, parasite or virus in culture; conditions: phenotype Tol neg, non-cation adjusted MHB broth, polypropylene plates, meropenem by standard CLSI method
Source text: (§1) The following strains were used: P. aeruginosa (ATCC 27,853 and resistant strains: J4228 (R: Meropenem), BB2013-100 (FQR)); A. baumannii (Josh 28 and resistant strain Josh 230 (OXA-48); E. cloacae (resistant strains: BB2012-181(R: Meropenem), BB2013-32 (FQR)); E. aerogenes (resistant strain St. L P63 (NDM-1), E. asburiae/cloacae (resistant strain St. L P23 (NDM-1), K. pneumonia (J3702 and resistant strains: BB2009-209 (KPC-2), Oschner KP-1), Escherichia coli (BW25113 (7636) and resistant strains: JW55034 (11430) (Tol neg), BB2013-30 (R:carbapenem), ARLG-1012 (NDM)). Susceptibility testing was performed using non-cation adjusted MHB broth and polypropylene plates. Testing was also done in the presence and absence of acetic acid and BSA.

E. coli BB2013-30 = experiment: microbe, parasite or virus in culture
Source text: as §1

E. aerogenes St. L P63 = experiment: microbe, parasite or virus in culture
Source text: as §1

A. baumannii Josh 230 = experiment: microbe, parasite or virus in culture
Source text: as §1

P. aeruginosa BB2013-100 = experiment: microbe, parasite or virus in culture
Source text: as §1

E. coli ARLG-1012 = experiment: microbe, parasite or virus in culture
Source text: as §1

P. aeruginosa J4228 = experiment: microbe, parasite or virus in culture
Source text: as §1

K. pneumoniae J3702 = experiment: microbe, parasite or virus in culture
Source text: as §1

A. baumannii Josh 28 = experiment: microbe, parasite or virus in culture
Source text: as §1

E. cloacae BB2012-181 = experiment: microbe, parasite or virus in culture
Source text: as §1

P. aeruginosa ATCC 27853 = experiment: microbe, parasite or virus in culture
Source text: as §1

K. pneumoniae BB2009-209 = experiment: microbe, parasite or virus in culture
Source text: as §1

[1] = system: K. pneumoniae Oschner KP-1; experiment: microbe, parasite or virus in culture
Source text: as §1

E. coli BW25113 (7636) = experiment: microbe, parasite or virus in culture
Source text: as §1

E. cloacae BB2013-32 = experiment: microbe, parasite or virus in culture
Source text: as §1

[2] = system: E. asburiae/cloacae St. L P23; experiment: organism not typed
Source text: as §1

[3] = system: Escherichia coli ATCC 25922
Experimental: The MICs of the designed cationic peptides against Escherichia coli ATCC 25,922 strains were determined by the broth microdilution method, as described by Hancock et al.. All MIC evaluations were performed using Luria Bertani (LB) medium. Briefly, a range of each peptide concentrations (100 µg/mL, 50 µg/mL, 25 µg/mL, 12.5 µg/mL, 6.25 µg/mL, 3.125 µg/mL) was prepared by serial dilution in NaCl-depleted LB medium and added to an equal volume (250 µl) of exponentially grown bacterial culture, so that final bacterial suspension contained 5 × 10^5 CFU/mL. The samples were incubated in 2 mL polypropylene microtubes at 37 °C overnight at 300 rpm. The MIC was defined as the concentration at which no microbial growth was detected spectrophotometrically, via readings of optical density (OD) at 600 nm (Biotek ELX800 microplate reader). Growth medium containing only bacterial cells was used as a negative control. Each MIC test was carried out in two replicates and repeated three times.

Compound: C[C@@H](O)[C@H]1C(=O)N2C(C(=O)O)=C(S[C@@H]3CN[C@H](C(=O)N(C)C)C3)[C@H](C)[C@H]12 [Meropenem, reference compound]
- MIC (E. coli JW55034 (11430); Escherichia coli, read-out: MIC): ≤ 0.125 µg/mL
- MIC (E. coli BB2013-30; Escherichia coli, BB201330, E. coli BB2013-30, phenotype R:carbapenem, non-cation adjusted MHB broth, polypropylene plates, meropenem by standard CLSI method, read-out: MIC): 1 µg/mL (≈ 2.61 µM)
- MIC (E. aerogenes St. L P63; Klebsiella aerogenes, ST.LP63, E. aerogenes St. L P63, phenotype NDM-1, non-cation adjusted MHB broth, polypropylene plates, meropenem by standard CLSI method, read-out: MIC): 16 µg/mL (≈ 41.7 µM)
- MIC (A. baumannii Josh 230; Acinetobacter baumannii, JOSH230, A. baumannii Josh 230, phenotype OXA-48, non-cation adjusted MHB broth, polypropylene plates, meropenem by standard CLSI method, read-out: MIC): 1 µg/mL (≈ 2.61 µM)
- MIC (P. aeruginosa BB2013-100; Pseudomonas aeruginosa, BB2013100, P. aeruginosa BB2013-100, phenotype FQR, non-cation adjusted MHB broth, polypropylene plates, meropenem by standard CLSI method, read-out: MIC): 1 µg/mL (≈ 2.61 µM)
- MIC (E. coli ARLG-1012; Escherichia coli, ARLG1012, E. coli ARLG-1012, phenotype NDM, non-cation adjusted MHB broth, polypropylene plates, meropenem by standard CLSI method, read-out: MIC): 64 µg/mL (≈ 167 µM)
- MIC (P. aeruginosa J4228; Pseudomonas aeruginosa, P. aeruginosa J4228, phenotype R: Meropenem, non-cation adjusted MHB broth, polypropylene plates, meropenem by standard CLSI method, read-out: MIC): > 64 µg/mL
- MIC (K. pneumoniae J3702; Klebsiella pneumoniae, K. pneumoniae J3702, phenotype Susceptible, non-cation adjusted MHB broth, polypropylene plates, meropenem by standard CLSI method, read-out: MIC): ≤ 0.125 µg/mL
- MIC (A. baumannii Josh 28; Acinetobacter baumannii, JOSH28, A. baumannii Josh 28, phenotype Susceptible, non-cation adjusted MHB broth, polypropylene plates, meropenem by standard CLSI method, read-out: MIC): 32 µg/mL (≈ 83.4 µM)
- MIC (E. cloacae BB2012-181; Enterobacter cloacae, BB2012181, E. cloacae BB2012-181, phenotype R: Meropenem, non-cation adjusted MHB broth, polypropylene plates, meropenem by standard CLSI method, read-out: MIC): 16 µg/mL (≈ 41.7 µM)
- MIC (P. aeruginosa ATCC 27853; Pseudomonas aeruginosa, ATCC27853, P. aeruginosa ATCC 27853, phenotype CLSI Control, non-cation adjusted MHB broth, polypropylene plates, meropenem by standard CLSI method, read-out: MIC): 1 µg/mL (≈ 2.61 µM)
- MIC (K. pneumoniae BB2009-209; Klebsiella pneumoniae, BB2009209, K. pneumoniae BB2009-209, phenotype KPC-2, non-cation adjusted MHB broth, polypropylene plates, meropenem by standard CLSI method, read-out: MIC): 32 µg/mL (≈ 83.4 µM)
- MIC ([1]; Klebsiella pneumoniae, K. pneumoniae Oschner KP-1, phenotype KPC-3, non-cation adjusted MHB broth, polypropylene plates, meropenem by standard CLSI method, read-out: MIC): 16 µg/mL (≈ 41.7 µM)
- MIC (E. coli BW25113 (7636); Escherichia coli, E. coli BW25113 (7636), phenotype WT, Tol parent strain, non-cation adjusted MHB broth, polypropylene plates, meropenem by standard CLSI method, read-out: MIC): ≤ 0.125 µg/mL
- MIC (E. cloacae BB2013-32; Enterobacter cloacae, BB201332, E. cloacae BB2013-32, phenotype FQR, non-cation adjusted MHB broth, polypropylene plates, meropenem by standard CLSI method, read-out: MIC): 0.5 µg/mL (≈ 1.3 µM)
- MIC ([2]; E. asburiae/cloacae St. L P23, phenotype NDM-1, non-cation adjusted MHB broth, polypropylene plates, meropenem by standard CLSI method, read-out: MIC): 16 µg/mL (≈ 41.7 µM)

Compound: CC[C@@H](C)[C@@H](NC(=O)[C@@H](C)N)C(=O)N[C@H](CCCCN)C(=O)N[C@@H](C(=O)N[C@H](CCCNC(=N)N)C(=O)N[C@H](CCCCN)C(=O)N[C@H](CC(C)C)C(=O)N[C@H](Cc1ccccc1)C(=O)N[C@H](CCCCN)C(=O)N[C@H](CCCCN)C(=O)N[C@H](CC(C)C)C(=O)N[C@H](CC(C)C)C(=O)N[C@H](CCCNC(=N)N)C(N)=O)[C@H](C)CC [SP1D] (H-[dA][dI][dK][dI][dR][dK][dL][dF][dK][dK][dL][dL][dR]-NH2)
- MIC At NaCl [3]: 12.5 to 25 µg/mL
- MIC Without NaCl [3]: 3.125 to 6.25 µg/mL

Compound: CC[C@@H](C)[C@@H](NC(=O)[C@@H](Cc1c[nH]c2ccccc12)NC(=O)[C@H](N)CCCNC(=N)N)C(=O)N[C@H](CCCNC(=N)N)C(=O)N[C@H](Cc1c[nH]c2ccccc12)C(=O)N[C@@H](C(=O)N[C@H](Cc1c[nH]c2ccccc12)C(=O)N[C@H](CCCNC(=N)N)C(=O)N[C@H](CCCCN)C(=O)N[C@H](CCCCN)C(=O)N[C@H](CC(C)C)C(=O)N[C@H](CCCNC(=N)N)C(N)=O)C(C)C [SP15D] (H-[dR][dW][dI][dR][dW][dV][dW][dR][dK][dK][dL][dR]-NH2)
- MIC At NaCl [3]: 0.78 to 1.56 µg/mL
- MIC Without NaCl [3]: 0.39 to 0.78 µg/mL

Compound: AIKIRKLFKKLLR-NH2 [SP1]
- MIC (E. coli JW55034 (11430)): 8 µg/mL
- MIC (E. coli BB2013-30; BB2013-30): 16 µg/mL
- MIC (A. baumannii Josh 230; Josh 230): 16 µg/mL
- MIC (P. aeruginosa BB2013-100; BB2013-100): 32 µg/mL
- MIC (E. coli ARLG-1012; ARLG-1012): 8 µg/mL
- MIC (P. aeruginosa J4228; J4228): 8 µg/mL
- MIC (K. pneumoniae J3702; J3702): >32 µg/mL
- MIC (A. baumannii Josh 28; Josh 28): 4 µg/mL
- MIC (P. aeruginosa ATCC 27853; ATCC 27853): 4 µg/mL
- MIC (K. pneumoniae BB2009-209; BB2009-209): >32 µg/mL
- MIC ([1]; Oschner KP-1): >32 µg/mL
- MIC (E. coli BW25113 (7636); BW25113): 8 µg/mL
- MIC (E. cloacae BB2013-32; BB2013-32): >32 µg/mL
- MIC At NaCl [3]: 12.5 to 25 µg/mL
- MIC Without NaCl [3]: 3.125 to 6.25 µg/mL
- MIC [2]: >32 µg/mL

Compound: AKVLKISRRAFRK-NH2 [SP10]
- MIC At NaCl [3]: >100 µg/mL
- MIC Without NaCl [3]: 25 to 50 µg/mL

Compound: GIKFFLKKLKKHI-NH2 [SP4]
- MIC (E. coli JW55034 (11430)): 8 µg/mL
- MIC (E. coli BB2013-30; BB2013-30): 16 µg/mL
- MIC (E. aerogenes St. L P63; St. L P63): 16 µg/mL
- MIC (A. baumannii Josh 230; Josh 230): 4 µg/mL
- MIC (P. aeruginosa BB2013-100; BB2013-100): 32 µg/mL
- MIC (E. coli ARLG-1012; ARLG-1012): 8 µg/mL
- MIC (P. aeruginosa J4228; J4228): 16 µg/mL
- MIC (K. pneumoniae J3702; J3702): 32 µg/mL
- MIC (A. baumannii Josh 28; Josh 28): 2 µg/mL
- MIC (E. cloacae BB2012-181; BB2012-181): >32 µg/mL
- MIC (P. aeruginosa ATCC 27853; ATCC 27853): 8 µg/mL
- MIC (K. pneumoniae BB2009-209; BB2009-209): >32 µg/mL
- MIC ([1]; Oschner KP-1): >32 µg/mL
- MIC (E. coli BW25113 (7636); BW25113): 8 µg/mL
- MIC (E. cloacae BB2013-32; BB2013-32): 16 µg/mL
- MIC At NaCl [3]: 25 to 50 µg/mL
- MIC Without NaCl [3]: 6.25 to 12.5 µg/mL
- MIC [2]: >32 µg/mL

Compound: GIKIRKLFKKLLR-NH2 [SP2]
- MIC At NaCl [3]: 6.25 to 12.5 µg/mL
- MIC Without NaCl [3]: 3.125 to 6.25 µg/mL

Compound: HFKIRKRFVKKLV-NH2 [SP13]
- MIC At NaCl [3]: >100 µg/mL
- MIC Without NaCl [3]: 6.25 to 12.5 µg/mL

Compound: IRPAKLRWFKKIK-NH2 [SP5]
- MIC At NaCl [3]: >100 µg/mL
- MIC Without NaCl [3]: 12.5 to 25 µg/mL

Compound: IRRRIRLIVRRQI-NH2 [SP12]
- MIC At NaCl [3]: 12.5 to 25 µg/mL
- MIC Without NaCl [3]: 1.56 to 3.125 µg/mL

Compound: IRRWRLHWFRRAI-NH2 [SP11]
- MIC At NaCl [3]: 12.5 to 25 µg/mL
- MIC Without NaCl [3]: 3.125 to 6.25 µg/mL

Compound: KFRKFGKQVWVRL-NH2 [SP8]
- MIC At NaCl [3]: 12.5 to 25 µg/mL
- MIC Without NaCl [3]: 3.125 to 6.25 µg/mL

Compound: KVWSRLRKIFSTR-NH2 [SP9]
- MIC At NaCl [3]: 6.25 to 12.5 µg/mL
- MIC Without NaCl [3]: 3.125 to 6.25 µg/mL

Compound: NAMRGAKRVWRHI-NH2 [SP7]
- MIC At NaCl [3]: >100 µg/mL
- MIC Without NaCl [3]: 50 to 100 µg/mL

Compound: RLFIKKLKFITRR-NH2 [SP6]
- MIC At NaCl [3]: 25 to 50 µg/mL
- MIC Without NaCl [3]: 3.125 to 6.25 µg/mL

Compound: RWIRWVWRKKLR-NH2 [SP15]
- MIC At NaCl [3]: 3.125 to 6.25 µg/mL
- MIC Without NaCl [3]: 0.78 to 1.56 µg/mL

Compound: RWIRWVWRKKLRI-NH2 [SP14]
- MIC At NaCl [3]: 12.5 to 25 µg/mL
- MIC Without NaCl [3]: 3.125 to 6.25 µg/mL
